Eleven compounds from patent US20250145576A1, “CATHEPSIN K INHIBITOR, AND PREPARATION METHOD THEREFOR AND USE THEREOF” (SHANDONG NEW TIME PHARMACEUTICAL CO., LTD., priority 2022, published 2025) can be followed below.

What all share (format): biochemical
The target of one assay is Cathepsin K (Homo sapiens (Human), UniProt P43235). Nature of the assay: Cat K inhibitor screening kit, AFC substrate fluorescence. As for the experimental part: Reagent information: Cat K inhibitor screening kit: batch number, 6L23K01500; supplier, BiVision. Drug preparation: compounds were dissolved in DMSO and prepared into 10 mM stock solutions. When in use, the stock solutions were prepared into the required concentrations by using a buffer.
Cathepsin K (CTSK, EC 3.4.22.38) is a lysosomal cysteine protease, participates in osteoclastic bone remodeling and resorption, and can further degrade collagen, gelatin and elastin. The cathepsin K inhibitor screening kit from Biovision uses the ability of the active cathepsin K to cleave a synthetic AFC-based peptide substrate to release AFC and the AFC can be easily quantified by using a fluorometer or fluorescent microplate reader. In the presence of a specific cathepsin K specific inhibitor, the cleavage of the substrate is reduced/eliminated, resulting in a reduction or complete loss of AFC fluorescence. The simple and high-throughput adaptive assay kit can be used to screen/study/characterize a potential inhibitor of the cathepsin K.
20 μL of a buffer, a Cat K inhibitor and test compounds (1 μM and 10 μM) were added to 96-well plates to serve as an EC well, an IC well and an S well, respectively; 50 μL of a Cat K enzyme solution was added into all the wells respectively and the mixture was incubated for 10-15 min at room temperature to establish an enzyme inhibitor complex; 30 μL of a Cat K substrate solution was added into all the wells and the mixture was incubated for 30-60 min at room temperature; and the final volume of the reaction was 100 μL.
The screening method was the same as 1.1, the concentrations of the test compounds were set between 0.1 nM and 10 μM, 4-5 concentrations were selected for detection, IC50 curves were drawn, and IC50 values were calculated.

The subject of the next assay is Cathepsin S. Nature of the assay: Screening of Cathepsin S, fluorescence. Particulars: >> inhibition rate did not exceed 20% at test concentration; > greater than 35%; ≈ about 50%; < less than 50%. How it is done:
10 μL of a buffer, a Cat S inhibitor and test compounds (1 μM and 10 μM) were added to 96-well plates to serve as an EC well, an IC well and an S well, respectively; 50 μL of a […] was added into all the wells respectively and the mixture was incubated for 10-15 min at room temperature to establish an enzyme inhibitor complex; 40 μL of a Cat S substrate solution was added into all the wells and the mixture was incubated for 30-60 min at room temperature; and the final volume of the reaction was 100 μL.
(§1) The screening method was the same as above, the concentrations of the test compounds were set between 0.1 nM and 10 μM, 4-5 concentrations were selected for detection, IC50 curves were drawn, and IC50 values were calculated.

In the next assay the target is Cathepsin B (Homo sapiens (Human), UniProt P07858). The assay can be described thus: Screening of Cathepsin B, fluorescence. Particulars: >> inhibition rate did not exceed 20% at test concentration; > greater than 35%; ≈ about 50%; < less than 50%. How it is done:
10 μL of a buffer, a Cat B inhibitor and test compounds (1 μM and 10 μM) were added to 96-well plates to serve as an EC well, an IC well and an S well, respectively; 50 μL of a Cat B enzyme solution was added into all the wells respectively and the mixture was incubated for 10-15 min at room temperature to establish an enzyme inhibitor complex; 40 μL of a Cat B substrate solution was added into all the wells and the mixture was incubated for 30-60 min at room temperature; and the final volume of the reaction was 100 μL.
as §1

Like-named read-outs stand apart in the source and are kept apart here.

Chain of Cathepsin K (P43235 115-329): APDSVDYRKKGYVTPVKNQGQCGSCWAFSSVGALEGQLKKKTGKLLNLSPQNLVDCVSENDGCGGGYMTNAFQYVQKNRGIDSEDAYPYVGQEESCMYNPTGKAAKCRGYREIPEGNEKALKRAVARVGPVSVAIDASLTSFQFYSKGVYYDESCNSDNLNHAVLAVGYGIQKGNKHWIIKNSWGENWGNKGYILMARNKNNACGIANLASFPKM

Take `O=C1COCC1NC(=O)[C@@H]1CCCC[C@H]1C(=O)N1CCc2c([nH]c3c(F)cccc23)C1` (stereo partly drawn) [Compound K19, (1R,2R)-2-(8-fluoro-2,3,4,9-tetrahydro-1H-pyrido[3,4-b]indole-2-carbonyl)-N-(4-oxotetrahydrofuran-3-yl)cyclohexane-1-carboxamide]: the IC50 (commonly the concentration that gives 50% inhibition) against Cathepsin K lay in the range of 10 to 100 nM.
On to `CC(C)(F)C[C@H](N[C@@H](c1ccc(-c2ccc(S(C)(=O)=O)cc2)cc1)C(F)(F)F)C(=O)NC1(C#N)CC1` [Odanacatib, reference compound], for which, in the assay on Cathepsin S, the “Cat S/K ratio of inhibitory activities” value is given as less than 290. For the same compound, the “Cat B/K ratio of inhibitory activities” value at Cathepsin B is greater than 590.
Consider `CN1CCN(c2ccc(-c3ccc(CN(CC4CCCCC4)c4nccc(C#N)n4)cc3)cc2)CC1` [Compound K15, 2-[(cyclohexylmethyl) ({4-[4-(4-methylpiperazin-1-yl)phenyl]phenyl}methyl)amino]pyrimidine-4-carbonitrile], for which the IC50 at Cathepsin K and against Cathepsin K (stated in text) was less than 10 nM throughout. In addition, the “Cat S/K ratio of inhibitory activities” value in the assay on Cathepsin S was “≈7,460”. The “Cat B/K ratio of inhibitory activities” value on Cathepsin B is recorded as >15,000.
On to `CC(C)(C)CN(Cc1ccc(-c2cscn2)cc1)c1nccc(C#N)n1` [Compound K17, 2-(neopentyl(4-(thiazol-4-yl)benzyl)amino)pyrimidine-4-carbonitrile], for which the IC50 against Cathepsin K lay in the range of 100 to 500 nM.
Regarding `CC(C)(C)CN(Cc1ccc(-c2ccccc2)cc1)c1nccc(C#N)n1` [Compound K2, 2-[(2,2-dimethylpropyl)[(4-phenylphenyl)methyl]amino]pyrimidine-4-carbonitrile], the IC50 against Cathepsin K was in the range of 100 to 500 nM. In addition, in the assay with Cathepsin S, the “Cat S/K ratio of inhibitory activities” value was >>2,100. In addition, the “Cat B/K ratio of inhibitory activities” value at Cathepsin B is recorded as >>2,100.
`CC(C)(C)CN(Cc1ccc(-c2ccc(S(C)(=O)=O)cc2)cc1)c1nccc(C#N)n1` [Compound K6, 2-[(2,2-dimethylpropyl) ({4-[4-(methylsulfonyl)phenyl]phenyl}methyl)amino]pyrimidine-4-carbonitrile] came in with an IC50 at Cathepsin K of 100 to 500 nM. Also, the “Cat S/K ratio of inhibitory activities” value in the assay with Cathepsin S is recorded as >>3,300. For the same compound, the “Cat B/K ratio of inhibitory activities” value at Cathepsin B is >>3,300.
As to `CN1CCN(c2ccc(CN(CC(C)(C)C)c3nccc(C#N)n3)cc2)CC1` [Compound K1, 2-[(2,2-dimethylpropyl){[4-(4-methylpiperazin-1-yl)phenyl]methyl}amino]pyrimidine-4-carbonitrile], the IC50 against Cathepsin K is 10 to 100 nM; against Cathepsin K (stated in text), less than 100 nM. The “Cat S/K ratio of inhibitory activities” value in the assay with Cathepsin S is reported as greater than 800. Besides, on Cathepsin B, the “Cat B/K ratio of inhibitory activities” value is on record as >1,600.
On to `Cc1ccc(-c2ccc(CN(CC(C)(C)C)c3nccc(C#N)n3)cc2)s1` [Compound K10, 2-[(2,2-dimethylpropyl){[4-(5-methylthiophen-2-yl)phenyl]methyl}amino]pyrimidine-4-carbonitrile], for which the IC50 at Cathepsin K lay in the range of 100 to 500 nM.
`CN1CCN(c2ccc(-c3ccc(CN(CC(C)(C)C)c4nccc(C#N)n4)cc3)cc2)CC1` [Compound K13, 2-[(2,2-dimethylpropyl) ({4-[4-(4-methylpiperazin-1-yl)phenyl]phenyl}methyl)amino]pyrimidine-4-carbonitrile]: the IC50 against Cathepsin K and against Cathepsin K (stated in text) was less than 10 nM in each case.
For the compound `CS(=O)(=O)c1ccc(-c2ccc(CN(CC3CCCCC3)c3nccc(C#N)n3)cc2)cc1` [Compound K16, 2-[(cyclohexylmethyl) ({4-[4-(methylsulfonyl)phenyl]phenyl}methyl)amino]pyrimidine-4-carbonitrile], the IC50 at Cathepsin K lay within 100 to 500 nM. Besides, the “Cat S/K ratio of inhibitory activities” value in the assay with Cathepsin S is recorded as >>3,300. On Cathepsin B, the “Cat B/K ratio of inhibitory activities” value was >>3,300.
`CC(C)(C)CN(Cc1ccc(-c2ccc(C#N)s2)cc1)c1nccc(C#N)n1` [Compound K7, 2-({[4-(5-cyanothiophen-2-yl)phenyl]methyl}(2,2-dimethylpropyl)amino)pyrimidine-4-carbonitrile]: the IC50 against Cathepsin K is 100 to 500 nM.
